Laboratory results taken from BindingDB's records for doi:10.1016/j.bmcl.2013.11.027 (Merck, 2013).

Biological target: Calcitonin gene-related peptide type 1 receptor/Receptor activity-modifying protein 1 (Homo sapiens, UniProt Q16602+O60894)
Assay: Displacement of [125I]-hCGRP from human CALCRL/RAMP1 expressed in HEK293 cell membranes

Chain of Calcitonin gene-related peptide type 1 receptor/Receptor activity-modifying protein 1 (Q16602 whole entry): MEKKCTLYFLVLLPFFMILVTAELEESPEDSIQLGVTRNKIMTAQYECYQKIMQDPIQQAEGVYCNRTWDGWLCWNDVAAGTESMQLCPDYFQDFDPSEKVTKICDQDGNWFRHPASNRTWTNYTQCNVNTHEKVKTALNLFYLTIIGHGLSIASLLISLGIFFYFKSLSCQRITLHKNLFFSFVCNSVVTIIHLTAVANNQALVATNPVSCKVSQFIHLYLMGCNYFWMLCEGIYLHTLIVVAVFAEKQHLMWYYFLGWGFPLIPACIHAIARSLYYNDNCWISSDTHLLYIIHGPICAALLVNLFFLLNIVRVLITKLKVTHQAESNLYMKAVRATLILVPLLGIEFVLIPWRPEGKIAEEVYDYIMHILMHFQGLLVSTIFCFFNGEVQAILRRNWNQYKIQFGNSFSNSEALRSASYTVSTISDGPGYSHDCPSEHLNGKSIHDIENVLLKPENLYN
Chain of Calcitonin gene-related peptide type 1 receptor/Receptor activity-modifying protein 1 (O60894 whole entry): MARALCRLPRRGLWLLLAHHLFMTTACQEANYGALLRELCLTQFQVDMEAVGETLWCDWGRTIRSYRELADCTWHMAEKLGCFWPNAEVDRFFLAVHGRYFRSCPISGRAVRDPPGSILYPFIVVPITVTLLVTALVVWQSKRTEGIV

Row | Ki | Compound
1 | 0.05 nM | C[C@H](c1cc(F)cc(F)c1)N(C/C=C/c1cnc2c(c1)C[C@@]1(C2)C(=O)Nc2ncccc21)C(=O)C1(C(F)(F)F)CC1 [US8552023, 11]
2 | 0.13 nM | Cc1ccc([C@@H](C)N(C/C=C/c2cnc3c(c2)C[C@@]2(C3)C(=O)Nc3ncccc32)C(=O)C(C)(C)C)cc1F [US8552023, 13]
